Measurements: patent publication US9115159B2, “Phosphate compounds, a process for their preparation and pharmaceutical compositions containing them” (LES LABORATOIRES SERVIER, priority 2013, dated 2015)
Read-outs that look alike come from different tables or passages of the source.

Columns and labels:
[1] = test system: cleaved (activated) form of caspase 3; assay: Quantification of the cleaved form of caspase 3 in vivo (MSD ELISA, RS4;11 xenograft tumour lysates); parameters: species or system mice (SCID strain); conditions: Table 2, 25 mg/kg oral, sampling time 2 hours, treated versus control mice
Procedure: The ability of the compounds of formula (I′) to activate caspase 3 is evaluated in a xenograft model of RS4;11 leukaemia cells.
1×10^7 RS4;11 cells are grafted sub-cutaneously into immunosuppressed mice (SCID strain). 25 to 30 days after the graft, the animals are treated orally with the various compounds. After treatment, the tumour masses are recovered and lysed, and the cleaved (activated) form of caspase 3 is quantified in the tumour lysates.
The quantification is carried out using the “Meso Scale Discovery (MSD) ELISA platform” test, which specifically assays the cleaved form of caspase 3. It is expressed in the form of an activation factor corresponding to the ratio between the quantity of cleaved caspase 3 in the treated mice divided by the quantity of cleaved caspase 3 in the control mice.
The ability of the compounds of formula (I) to activate caspase 3 is evaluated in a xenograft model of RS4;11 leukaemia cells in accordance with the protocol given in Example A2.

[2] = Pharmacokinetic profile / in vivo conversion after oral administration to SCID mice (plasma, LC-MS/MS); parameters: species or system female SCID mice; conditions: female, mouse, po, lipid formulation (PEG 300/ethanol/Phosal 50PG 30/10/60)
Procedure: The pharmacokinetic profile of the phosphate compounds of formula (I) is evaluated in a lipid formulation and in aqueous solution in female SCID mice. This is compared to the pharmacokinetic profile of compounds of formula (I′) in a lipid formulation. More specifically, 4-[{[3-(6-{[(3S)-3-(morpholin-4-ylmethyl)-3,4-dihydroisoquinolin-2(1H)-yl]-carbonyl}-1,3-benzodioxol-5-yl)-5,6,7,8-tetrahydroindolizin-1-yl]carbonyl}(phenyl)-amino]phenyl disodium phosphate (also referred to as the compound of Example 1) was tested and compared to N-(4-hydroxyphenyl)-3-{6-[((3S)-3-(4-morpholinylmethyl)-3,4-dihydro-2(1H)-isoquinolinyl)carbonyl]-1,3-benzodioxol-5-yl}-N-phenyl-5,6,7,8-tetrahydro-1-indolizine carboxamide (also referred to as the drug from Example 1).
The compound of Example 1 is prepared in a mixture of anhydrous ethanol/polyethylene glycol 300/water (10/40/50, v/v/v) intended for administration by the p.o. route. The study is carried out in 2 groups of SCID mice to which the compound of Example 1 is administered under the following conditions: • Group 1: 3 mg/kg p.o. (gavage, 10 mL/kg), • Group 2: 25 mg/kg p.o. (gavage, 10 mL/kg).
Blood samples are taken at the following points in time (3 samples per animal and 3 animals for each point in time): 0.25 hr, 0.5 hr, 1 hr, 2 hrs, 6 hrs and 24 hrs after oral administration.
The compound of Example 1 is also administered by the oral route in an aqueous medium to SCID mice, under the following conditions: • Group 1: 30 mg/kg p.o. dissolved in 1 mM sodium carbonate solution (gavage, 10 mL/kg), • Group 2: 100 mg/kg p.o. in water (gavage, 10 mL/kg).
Blood samples are taken at the following points in time (3 animals for each point in time and 1 sample per animal): 0.25 hr, 0.5 hr, 1 hr, 2 hrs, 4 hrs, 6 hrs and 24 hrs after oral administration.
For all formulations of the compound of Example 1, the blood thereby collected is centrifuged and the plasma is transferred to tubes containing 1M hydrochloric acid. The plasma concentrations of the phosphate compound (prodrug) and its hydroxylated homologue (drug) are determined simultaneously using a method of liquid chromatography coupled with mass spectrometric detection (TFC-LC-MS/MS). The limit of detection for both entities is 0.5 ng/mL.
The drug from Example 1 is prepared in a mixture of anhydrous ethanol/polyethylene glycol 300/water (10/40/50, v/v/v) intended for administration by the p.o. route. The study is carried out in several groups of SCID mice to which the drug from Example 1 is administered under the following conditions: • Group 1: 3 mg/kg p.o. (gavage, 10 mL/kg), • Group 2: 30 mg/kg p.o. (gavage, 10 mL/kg), • Group 3: 25 mg/kg p.o. (gavage, 10 mL/kg), • Group 4: 100 mg/kg p.o. (gavage, 10 mL/kg).
Blood samples are taken at the following points in time (3 animals for each point in time and 3 samples per animal for Groups 1-2 and 1 sample per animal for Groups 3 and 4): • p.o.: before administration and then 0.25 hr, 0.5 hr, 0.75 hr, 1 hr, 2 hrs, 4 hrs, 6 hrs, 8 hrs, 16 hrs and 24 hrs after oral administration at 3 and 30 mg/kg, • p.o.: 0.5 hr, 2 hrs, 6 hrs, 16 hrs and 24 hrs after oral administration at 25 mg/kg and 0.5 hr, 1 hr, 2 hrs, 6 hrs, 16 hrs, 30 hrs and 48 hrs after oral administration at 100 mg/kg.
The plasma from the blood samples collected after administration of the lipid formulations of the drug from the compound of Example 1 are analysed by liquid chromatography coupled with mass spectrometric detection. The limit of quantification of the drug from the compound of Example 1 is less than or equal to 0.5 ng/mL.
Non-compartmental pharmacokinetic analysis is carried out on the mean values of the plasma concentrations of the compounds tested. […]

[3] = Solubility in aqueous medium buffered to physiological pH (phosphate 0.33M, pH 7.4); format: physicochemical; conditions: phosphate 0.33M, pH = 7.4
Procedure: The solubilities of the compounds were also measured in a medium buffered to physiological pH (cf. Table 3).

[4] = In vitro test on human Caco-2 cells, cellular transport A to B; format: in vitro ADME; conditions: human, Caco-2, drug incubated and measured, A to B, 1 or 3 μM, read-out: Papp, the drug after incubation of the drug
Procedure: (§1) The cellular transport from A to B (Apical to Basolateral) of the phosphate compounds of formula (I) and the compounds of formula (I′) (corresponding drugs) is studied in human Caco-2 cells. Each compound is deposited apically at 1 or 3 μM (in duplicate) and then incubated for 120 minutes.
(§2) Several samples are taken during the experiment; • apically: immediately after deposition (t=0) and at 120 minutes • basolaterally: at the end of the experiment (120 minutes)
(§3) The concentrations of the phosphate compound (prodrug) and/or of its hydroxylated homologue (drug) are determined by liquid chromatography coupled with mass spectrometric detection (LC-MS/MS). The limit of quantification for both entities is 2 ng/mL.
(§4) The apparent permeability (Papp) and the predicted absorbed fraction (Fabs) in humans are calculated for the prodrug, for the drug after incubation of the prodrug and for the drug after incubation of the drug (Hubatsch et al, Nat Protoc. 2007; 2(9), 2111-2119).
(§5) The experiment yield, which corresponds to the ratio (in percent) of the total amount of compound found at the end of the experiment versus that incubated, is also calculated.

human Caco-2 cells = assay: as above; format: in vitro ADME; conditions: drug incubated and measured, 120 minutes; for Fabs (predicted absorbed fraction in humans), the drug after incubation of the drug: A to B, 1 or 3 μM
Procedure: as §1, §2, §3, §4, §5

Compound | Solubility at 10 μM [3] | Solubility at 20 μM [3] | Solubility at 50 μM [3] | Solubility at 100 μM [3] | Papp A→B at 120 min [4] [×10⁻⁶ cm/s] | Yield (experiment yield), the drug after incubation of the drug (human Caco-2 cells) | Fabs (predicted absorbed fraction in humans), the drug after incubation of the drug (human Caco-2 cells) | further results
Cc1c(C(=O)N(c2ccc(OP(=O)([O-])[O-])cc2)c2cnn(C)c2)cc(-c2cc(Cl)ccc2C(=O)N2Cc3ccccc3C[C@H]2CN2CCOCC2)n1C.[Na+].[Na+] [Example 24, 4-[{[5-(5-Chloro-2-{[(3S)-3-(morpholin-4-ylmethyl)-3,4-dihydroisoquinolin-2(1H)-yl]carbonyl}phenyl)-1,2-dimethyl-1H-pyrrol-3-yl]carbonyl}(1-methyl-1H-pyrazol-4-yl)amino]phenyl disodium phosphate] |  |  |  |  |  |  |  | Activation factor +/− S.E.M. [1]: 60.5 +/− 4.5
Cc1c(N(C(=O)c2cc(-c3cc(F)ccc3C(=O)N3Cc4ccccc4C[C@H]3CN3CCOCC3)n(C)c2C)c2ccc(O)cc2)cc(C#N)n1C [Drug from Example 25, N-(5-Cyano-1,2-dimethyl-1H-pyrrol-3-yl)-5-(5-fluoro-2-{[(3S)-3-(morpholin-4-ylmethyl)-3,4-dihydroisoquinolin-2(1H)-yl]carbonyl}phenyl)-N-(4-hydroxyphenyl)-1,2-dimethyl-1H-pyrrole-3-carboxamide] | Soluble | Soluble | Insoluble | Insoluble | 0.49 | Yield (%) = 100 | Fabs (%) = 40 | AUC(0-t) ([2]; Drug from Example 25 administered 3 mg/kg p.o., read-out: AUCt, compound measured: Drug from Example 25): 37 ng·h/mL; Cmax ([2]; Drug from Example 25 administered 3 mg/kg p.o., read-out: Cmax, compound measured: Drug from Example 25): 33 ng/mL; Tmax ([2]; Drug from Example 25 administered 3 mg/kg p.o., read-out: Tmax, compound measured: Drug from Example 25): 1 h; AUC(0-t) ([2]; Drug from Example 25 administered 25 mg/kg p.o., read-out: AUCt, compound measured: Drug from Example 25): 5700 ng·h/mL; Cmax ([2]; Drug from Example 25 administered 25 mg/kg p.o., read-out: Cmax, compound measured: Drug from Example 25): 3000 ng/mL; Tmax ([2]; Drug from Example 25 administered 25 mg/kg p.o., read-out: Tmax, compound measured: Drug from Example 25): 1 h
C[C@@H]1Cc2ccccc2CN1C(=O)c1cc2c(cc1-c1cc(C(=O)N(c3ccc(O)cc3)c3cnc4c(ccn4C)c3)c3ccccn13)OCO2 [Drug from Example 4, N-(4-Hydroxyphenyl)-3-(6-{[(3R)-3-methyl-3,4-dihydroisoquinolin-2(1H)-yl]carbonyl}-1,3-benzodioxol-5-yl)-N-(1-methyl-1H-pyrrolo[2,3-b]pyridin-5-yl)-indolizine-1-carboxamide] |  |  |  |  | 0.21 | Yield (%) = 20 | Fabs (%) = 46 | 
Cc1c(N(C(=O)c2cc(-c3cc(Cl)ccc3C(=O)N3Cc4ccccc4C[C@H]3CN3CCOCC3)n(C)c2C)c2ccc(O)cc2)cc(C#N)n1C [Drug from Example 20, 5-(5-Chloro-2-{[(3S)-3-(morpholin-4-ylmethyl)-3,4-dihydroisoquinolin-2(1H)-yl]carbonyl}phenyl)-N-(5-cyano-1,2-dimethyl-1H-pyrrol-3-yl)-N-(4-hydroxyphenyl)-1,2-dimethyl-1H-pyrrole-3-carboxamide] | Soluble | Insoluble | Insoluble | Insoluble | 0.29 | Yield (%) = 91 | Fabs (%) = 25 | AUC(0-t) ([2]; Drug from Example 20 administered 3 mg/kg p.o., read-out: AUCt, compound measured: Drug from Example 20): 55 ng·h/mL; Cmax ([2]; Drug from Example 20 administered 3 mg/kg p.o., read-out: Cmax, compound measured: Drug from Example 20): 39 ng/mL; Tmax ([2]; Drug from Example 20 administered 3 mg/kg p.o., read-out: Tmax, compound measured: Drug from Example 20): 1 h; AUC(0-t) ([2]; Drug from Example 20 administered 25 mg/kg p.o., read-out: AUCt, compound measured: Drug from Example 20): 10200 ng·h/mL; Cmax ([2]; Drug from Example 20 administered 25 mg/kg p.o., read-out: Cmax, compound measured: Drug from Example 20): 5520 ng/mL; Tmax ([2]; Drug from Example 20 administered 25 mg/kg p.o., read-out: Tmax, compound measured: Drug from Example 20): 2 h
C[C@@H]1Cc2ccccc2CN1C(=O)c1cc2c(cc1-c1cc(C(=O)N(c3ccncc3)c3ccc(O)cc3)c3ccccn13)OCO2 [Drug from Example 5, N-(4-Hydroxyphenyl)-3-(6-{[(3R)-3-methyl-3,4-dihydroisoquinolin-2(1H)-yl]-carbonyl}-1,3-benzodioxol-5-yl)-N-(pyridin-4-yl)indolizine-1-carboxamide] |  |  |  |  | 0.7 | Yield (%) = 34 | Fabs (%) = 68 | 
